Measurements published in article doi:10.1101/2021.06.16.448769v1 (bioRxiv, 2021).
Bridge positions count the residues as written; N and C are the ends. Ends that are not written are not given here. Peptide text beside a SMILES is read from it. * marks the point of attachment. Palmitoyl = CCCCCCCCCCCCCCCC(=O)*

Legend:
[1] = Plasma stability, mouse plasma; type: in vitro ADME; settings: plasma (lithium heparin)
[2] = Plasma stability, human plasma; type: in vitro ADME; settings: plasma (lithium heparin)
[3] = Plasma pharmacokinetics after intravenous bolus; type: in vivo, Sprague Dawley rats; settings: male, Sprague-Dawley, rat
[4] = Plasma stability, rat plasma; type: in vitro ADME; settings: plasma (lithium heparin)
rat C5 protein = rat C5 protein (Rattus norvegicus, UniProt P08650); assay: SPR single-cycle kinetics, binding to rat C5
human C5 = human C5 (Homo sapiens, UniProt P01031); assay: SPR multi-cycle kinetics, binding to human C5
[5] = test system: C5 activation (C5b-6), alternative pathway; assay: Alternative pathway; type: biochemical
[6] = test system: C5 activation (C5b-6), classical pathway; assay: Classical pathway; type: biochemical
Solubility = type: physicochemical; settings: reason for lower in vivo dose of 1 mg/kg

Sequence of human C5 (P01031 19-673 limits assumed): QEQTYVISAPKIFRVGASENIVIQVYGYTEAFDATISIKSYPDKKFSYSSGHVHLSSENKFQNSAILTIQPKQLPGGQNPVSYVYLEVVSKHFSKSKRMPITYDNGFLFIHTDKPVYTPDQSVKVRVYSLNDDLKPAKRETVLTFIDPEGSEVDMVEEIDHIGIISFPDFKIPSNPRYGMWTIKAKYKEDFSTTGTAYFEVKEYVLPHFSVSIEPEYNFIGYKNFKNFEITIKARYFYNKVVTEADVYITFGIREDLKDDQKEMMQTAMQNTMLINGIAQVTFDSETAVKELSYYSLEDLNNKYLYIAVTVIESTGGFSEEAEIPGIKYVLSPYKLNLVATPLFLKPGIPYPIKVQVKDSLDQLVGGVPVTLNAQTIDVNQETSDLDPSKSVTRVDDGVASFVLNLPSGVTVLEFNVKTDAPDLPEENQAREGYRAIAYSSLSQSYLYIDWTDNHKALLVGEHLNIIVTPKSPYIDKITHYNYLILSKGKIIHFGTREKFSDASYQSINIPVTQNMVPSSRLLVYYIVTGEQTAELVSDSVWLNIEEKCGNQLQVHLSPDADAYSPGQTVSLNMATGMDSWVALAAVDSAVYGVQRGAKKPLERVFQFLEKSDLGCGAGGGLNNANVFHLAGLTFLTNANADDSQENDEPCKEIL
Sequence of human C5 (P01031 678-1676 limits assumed): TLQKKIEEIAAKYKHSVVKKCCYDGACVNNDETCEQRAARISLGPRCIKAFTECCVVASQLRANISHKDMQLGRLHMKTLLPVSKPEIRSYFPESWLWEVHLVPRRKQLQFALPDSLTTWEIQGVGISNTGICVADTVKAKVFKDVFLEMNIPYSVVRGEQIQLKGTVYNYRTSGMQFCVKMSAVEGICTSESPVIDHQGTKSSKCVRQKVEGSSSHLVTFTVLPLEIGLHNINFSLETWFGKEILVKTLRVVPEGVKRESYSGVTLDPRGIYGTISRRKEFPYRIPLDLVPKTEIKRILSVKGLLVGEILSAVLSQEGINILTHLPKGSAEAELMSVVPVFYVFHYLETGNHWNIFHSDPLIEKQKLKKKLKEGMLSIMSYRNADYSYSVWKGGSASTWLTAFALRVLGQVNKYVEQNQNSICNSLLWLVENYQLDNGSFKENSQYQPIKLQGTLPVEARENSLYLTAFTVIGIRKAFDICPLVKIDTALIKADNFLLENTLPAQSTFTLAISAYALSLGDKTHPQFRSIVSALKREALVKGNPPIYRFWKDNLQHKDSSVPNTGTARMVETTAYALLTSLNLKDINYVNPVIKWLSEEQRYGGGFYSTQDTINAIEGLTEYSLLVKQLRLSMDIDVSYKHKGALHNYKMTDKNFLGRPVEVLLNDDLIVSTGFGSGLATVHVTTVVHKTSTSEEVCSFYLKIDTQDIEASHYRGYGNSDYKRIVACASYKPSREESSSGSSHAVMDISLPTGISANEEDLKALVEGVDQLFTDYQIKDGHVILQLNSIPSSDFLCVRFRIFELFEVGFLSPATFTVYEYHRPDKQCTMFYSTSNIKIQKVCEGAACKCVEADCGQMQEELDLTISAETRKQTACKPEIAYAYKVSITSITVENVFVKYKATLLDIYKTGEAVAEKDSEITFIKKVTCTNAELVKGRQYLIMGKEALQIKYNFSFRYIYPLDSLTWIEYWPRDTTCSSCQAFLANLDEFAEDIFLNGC
Sequence of rat C5 protein (P08650 19-1681): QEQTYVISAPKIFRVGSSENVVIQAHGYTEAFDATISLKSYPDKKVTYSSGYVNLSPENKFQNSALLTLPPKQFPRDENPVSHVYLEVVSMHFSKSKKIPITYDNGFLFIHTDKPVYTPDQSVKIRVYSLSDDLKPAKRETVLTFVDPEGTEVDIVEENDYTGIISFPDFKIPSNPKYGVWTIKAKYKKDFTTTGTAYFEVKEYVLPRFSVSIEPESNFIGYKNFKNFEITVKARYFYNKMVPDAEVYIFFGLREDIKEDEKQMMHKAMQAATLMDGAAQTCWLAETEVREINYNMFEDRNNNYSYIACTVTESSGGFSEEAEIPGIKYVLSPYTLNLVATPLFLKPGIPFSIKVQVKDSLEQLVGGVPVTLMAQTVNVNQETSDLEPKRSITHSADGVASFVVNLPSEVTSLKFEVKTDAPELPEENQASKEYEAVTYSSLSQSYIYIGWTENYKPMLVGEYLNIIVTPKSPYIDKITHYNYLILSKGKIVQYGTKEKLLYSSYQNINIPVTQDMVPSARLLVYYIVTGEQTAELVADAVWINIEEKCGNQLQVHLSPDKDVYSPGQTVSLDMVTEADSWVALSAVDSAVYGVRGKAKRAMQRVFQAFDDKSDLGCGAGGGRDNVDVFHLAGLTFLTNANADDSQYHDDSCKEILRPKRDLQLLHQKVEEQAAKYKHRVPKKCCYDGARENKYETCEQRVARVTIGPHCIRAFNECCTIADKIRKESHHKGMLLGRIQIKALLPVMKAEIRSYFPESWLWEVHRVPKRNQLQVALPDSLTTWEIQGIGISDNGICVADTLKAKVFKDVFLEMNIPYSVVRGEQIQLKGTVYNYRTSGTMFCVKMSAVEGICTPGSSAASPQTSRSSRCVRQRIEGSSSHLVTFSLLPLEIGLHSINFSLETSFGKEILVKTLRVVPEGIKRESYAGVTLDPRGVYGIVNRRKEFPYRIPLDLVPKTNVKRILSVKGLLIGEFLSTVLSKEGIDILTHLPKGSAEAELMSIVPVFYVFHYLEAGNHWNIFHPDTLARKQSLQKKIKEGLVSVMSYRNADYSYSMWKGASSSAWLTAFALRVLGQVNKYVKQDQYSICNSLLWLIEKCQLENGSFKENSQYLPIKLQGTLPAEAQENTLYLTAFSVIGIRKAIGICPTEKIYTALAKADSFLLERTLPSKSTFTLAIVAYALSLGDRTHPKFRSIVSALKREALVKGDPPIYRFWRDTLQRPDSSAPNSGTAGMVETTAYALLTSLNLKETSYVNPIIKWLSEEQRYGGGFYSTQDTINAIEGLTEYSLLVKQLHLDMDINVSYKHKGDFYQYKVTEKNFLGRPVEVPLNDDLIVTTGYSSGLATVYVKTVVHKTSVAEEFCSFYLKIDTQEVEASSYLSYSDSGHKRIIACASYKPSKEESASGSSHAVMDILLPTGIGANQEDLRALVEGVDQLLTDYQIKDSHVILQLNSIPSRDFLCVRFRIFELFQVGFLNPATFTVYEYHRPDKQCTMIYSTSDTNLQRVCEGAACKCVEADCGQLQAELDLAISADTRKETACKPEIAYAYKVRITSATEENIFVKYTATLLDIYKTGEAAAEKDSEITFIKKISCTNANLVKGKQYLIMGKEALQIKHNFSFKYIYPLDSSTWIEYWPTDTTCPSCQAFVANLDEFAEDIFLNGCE

GCPPGYKSGVDCSPGSECKWGCYAVDGRRYGGYGADSGVGS-OH (disulfide 2-18, 12-22 (inferred)) [K57chemFE]
remaining at 24 h, 6.25 µg/mL [1]: 22%
remaining at 24 h, 6.25 µg/mL [2]: 76%
clearance ([3]; 10 mg/kg): 10.6 mL/min/kg
half-life ([3]; 10 mg/kg): 17 min
remaining at 24 h, 6.25 µg/mL [4]: 56%
cross reactivity with rat C5 (in words) (rat C5 protein): specific for human C5

CC[C@H](C)[C@@H]1NC(=O)[C@H](C)NC(=O)[C@H](C(C)C)NC(=O)CNC(=O)[C@@H]2CSSC[C@@H](C(=O)NCC(=O)N[C@@H](Cc3c[nH]cn3)C(=O)N[C@@H](Cc3ccccc3)C(=O)N[C@@H](CC(C)C)C(=O)N[C@@H](CC(N)=O)C(=O)N[C@@H](CO)C(=O)NCC(=O)N3CCC[C@H]3C(=O)N[C@@H](CC(N)=O)C(=O)N[C@H](C(=O)N[C@@H](CO)C(=O)N3CCC[C@H]3C(=O)N[C@@H](Cc3ccc(O)cc3)C(=O)N[C@H](C(=O)N[C@@H](CO)C(=O)N[C@H](C(=O)O)[C@@H](C)O)C(C)C)[C@@H](C)CC)NC(=O)CNC(=O)[C@H](Cc3c[nH]c4ccccc34)NC(=O)[C@H](CCCNC(=N)N)NC(=O)CNC(=O)[C@H](CSSC[C@H](NC(=O)[C@@H](N)[C@@H](C)O)C(=O)N3CCC[C@H]3C(=O)N[C@@H](CCC(=O)O)C(=O)NCC(=O)N[C@@H](Cc3c[nH]c4ccccc34)C(=O)N[C@@H](CO)C(=O)N[C@@H](CCC(=O)O)C(=O)N2)NC(=O)[C@H](CCC(=O)O)NC(=O)[C@H](Cc2ccc(O)cc2)NC(=O)CNC(=O)[C@H](Cc2ccc(O)cc2)NC1=O [K92chemFE] (H-TCPEGWSECGVAIYGYECGRWGCGHFLNSGPNISPYVST-OH; disulfide 2-18, 9-23; N-terminus assumed)
Kd (human C5; mean KD, SPR multi-cycle kinetics, mean of n=3): 0.41 nM
Alternative pathway ELISA Emax ([5]; Figure 6 data, n=3 replicates): 27%
effect in CP ELISA (in words) [6]: no effect

CSCC[C@@H]1NC(=O)[C@@H]2CCCN2C(=O)[C@@H](NC(=O)[C@@H]2CSSC[C@H](NC(=O)[C@@H](N)CO)C(=O)N3CCC[C@H]3C(=O)N[C@@H](CC(=O)O)C(=O)NCC(=O)N[C@@H](Cc3ccccc3)C(=O)N[C@@H](CO)C(=O)N[C@@H](Cc3ccc(O)cc3)C(=O)N[C@@H](CCCNC(=N)N)C(=O)N[C@@H](CO)C(=O)N[C@@H](Cc3c[nH]c4ccccc34)C(=O)N[C@@H](CC(=O)O)C(=O)N[C@@H](CC(=O)O)C(=O)N[C@@H](Cc3ccccc3)C(=O)N2)CSSC[C@@H](C(=O)N[C@@H](CC(C)C)C(=O)N[C@@H](C)C(=O)N2CCC[C@H]2C(=O)N[C@@H](CCCNC(=N)N)C(=O)N[C@@H](CC(N)=O)C(=O)O)NC(=O)[C@H](CCCNC(=N)N)NC(=O)CNC(=O)[C@H](C(C)C)NC1=O [K149chemFE] (H-SCPDGFSYRSWDDFCCPMVGRCLAPRN-OH; disulfide 2-15, 16-22 (inferred); N-terminus assumed)
binding to C5 (in words) (human C5; peptide after reduction and capping of cysteines with iodoacetamide (IAM)): entirely abrogated binding
effect in AP ELISA (in words) [5]: non-functional, silent binder of C5
effect in CP ELISA (in words) [6]: non-functional, silent binder of C5

Palmitoyl-GSSSGCPPGYKSGVDCSPGSECKWGCYAVDGRRYGGYGADSGVGS-OH (disulfide 6-22, 16-26 (inferred)) [K57chemFE-palmitoyl]
clearance ([3]; 1 mg/kg): 0.8 mL/min/kg
half-life ([3]; 1 mg/kg): 96 min
fold reduction in affinity for C5 relative to parent (human C5; SPR, relative to unmodified parent peptide): four-fold reduction
solubility (in words) (Solubility): poor solubility
